Assay results published in PubChem BioAssay (NCI).
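Step 1: Grow cells in 96-well plates. Step 2: Expose to compound for 48 hours at 5 concentrations. Step 3: Interpolate endpoints linearly; if unreached, use highest concentration. TGI marks complete inhibition of growth.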

Legend:
Experiment in all cases: inhibition of tumour cell growth, NCI panel, 48 h
[1] = test system: TK-10 renal
[2] = test system: A498 renal
[3] = test system: K-562 leukemia
[4] = test system: SK-MEL-2 melanoma
[5] = test system: UO-31 renal
[6] = test system: HL-60(TB) leukemia
[7] = test system: A549 NSCLC
[8] = test system: NCI-H23 lung
[9] = test system: MDA-N
[10] = test system: NCI-H460 lung
[11] = test system: CCRF-CEM leukemia
[12] = test system: ACHN renal
[13] = test system: OVCAR-4 ovarian
[14] = test system: MDA-MB-435
[15] = test system: COLO 205 colon
[16] = test system: UACC-62 melanoma
[17] = test system: SK-MEL-28 melanoma
[18] = test system: MDA-MB-231 breast
[19] = test system: SNB-19 CNS
[20] = test system: HCT-116 colon
[21] = test system: SF-295 CNS
[22] = test system: NCI/ADR-RES ovarian
[23] = test system: 786-0 renal
[24] = test system: HOP-92 NSCLC
[25] = test system: SN12C renal
[26] = test system: SW-620 colon
[27] = test system: KM12 colon
[28] = test system: MCF7 breast
[29] = test system: SF-539 CNS
[30] = test system: DU-145 prostate
[31] = test system: OVCAR-3 ovarian
[32] = test system: IGROV1 ovarian
[33] = test system: HOP-62 NSCLC
[34] = test system: NCI-H522 lung
[35] = test system: LOX IMVI melanoma
[36] = test system: CAKI-1 renal
[37] = test system: SR leukemia
[38] = test system: RXF 393 renal
[39] = test system: OVCAR-5 ovarian
[40] = test system: MALME-3M melanoma
[41] = test system: HCC-2998 colon
[42] = test system: MOLT-4 leukemia
[43] = test system: HCT-15 colon
[44] = test system: BT-549 breast
[45] = test system: U251 CNS
[46] = test system: NCI-H226 lung
[47] = test system: SK-MEL-5 melanoma
[48] = test system: PC-3 prostate
[49] = test system: RPMI-8226 leukemia
[50] = test system: M14 melanoma
[51] = test system: EKVX NSCLC
[52] = test system: T-47D breast
[53] = test system: UACC-257 melanoma
[54] = test system: SK-OV-3 ovarian
[55] = test system: SF-268 CNS
[56] = test system: SNB-75 CNS
[57] = test system: HT29 colon
[58] = test system: OVCAR-8 ovarian

Work on CCOC(=O)c1sc2nc(SC)nc(Nc3ccc4c(c3)OCO4)c2c1N yielded a TGI [1] of over 100 µM, a TGI [2] of 96.9 µM and a TGI [3] of over 100 µM. The TGI [4] was over 100 µM, the TGI [5] was over 100 µM and the TGI [6] was over 100 µM. For the same compound, the TGI [7] was over 100 µM, the TGI [8] was over 100 µM and the TGI [9] was over 100 µM. It also gave a TGI [10] of over 100 µM, a TGI [11] of over 100 µM and a TGI [12] of 69.4 µM. For the same compound, the TGI [13] was over 100 µM, the TGI [14] was over 100 µM and the TGI [15] was over 100 µM. It also gave a TGI [16] of over 100 µM, a TGI [17] of 63.1 µM and a TGI [18] of over 100 µM. For the same compound, the TGI [19] was over 100 µM, the TGI [20] was over 100 µM and the TGI [21] was 84.8 µM. For the same compound, the TGI [22] was over 100 µM, the TGI [23] was over 100 µM and the TGI [24] was 71.6 µM. The TGI [25] was over 100 µM, the TGI [26] was over 100 µM and the TGI [27] was over 100 µM. The TGI [28] was over 100 µM, the TGI [29] was over 100 µM and the TGI [30] was over 100 µM. The TGI [31] was over 100 µM, the TGI [32] was over 100 µM and the TGI [33] was over 100 µM. The TGI [34] was over 100 µM, the TGI [35] was over 100 µM and the TGI [36] was over 100 µM. It also gave a TGI [37] of over 100 µM, a TGI [38] of 31 µM and a TGI [39] of over 100 µM. It also gave a TGI [40] of 97.6 µM, a TGI [41] of over 100 µM and a TGI [42] of over 100 µM. It also gave a TGI [43] of over 100 µM, a TGI [44] of over 100 µM and a TGI [45] of over 100 µM. The TGI [46] was over 100 µM, the TGI [47] was over 100 µM and the TGI [48] was over 100 µM. For the same compound, the TGI [49] was over 100 µM, the TGI [50] was over 100 µM and the TGI [51] was 77.5 µM. It also gave a TGI [52] of over 100 µM and a TGI [53] of over 100 µM.
COc1ccc(/C=C2/SC(c3ccccc3)N(NC(=O)CCCCCCCCC(=O)NN3C(=O)/C(=C\c4ccc(OC)c(OC)c4)SC3c3ccccc3)C2=O)cc1OC (stereo not given) was tested, and the TGI [1] was over 100 µM, the TGI [2] was over 100 µM and the TGI [3] was 62 µM. The TGI [4] was over 100 µM, the TGI [5] was over 100 µM and the TGI [7] was over 100 µM. For the same compound, the TGI [8] was over 100 µM, the TGI [9] was 76.2 µM and the TGI [10] was over 100 µM. The TGI [12] was 71.8 µM, the TGI [13] was over 100 µM and the TGI [14] was over 100 µM. For the same compound, the TGI [15] was over 100 µM, the TGI [16] was 98.7 µM and the TGI [17] was over 100 µM. It also gave a TGI [18] of over 100 µM, a TGI [19] of over 100 µM and a TGI [20] of over 100 µM. It also gave a TGI [21] of 72.9 µM, a TGI [22] of over 100 µM and a TGI [23] of 91.3 µM. The TGI [54] was over 100 µM, the TGI [24] was 66.3 µM and the TGI [25] was over 100 µM. The TGI [26] was over 100 µM, the TGI [27] was over 100 µM and the TGI [28] was over 100 µM. The TGI [29] was 79.1 µM, the TGI [30] was over 100 µM and the TGI [31] was over 100 µM. The TGI [55] was over 100 µM, the TGI [32] was 61.7 µM and the TGI [33] was over 100 µM. The TGI [36] was over 100 µM, the TGI [37] was 98.3 µM and the TGI [56] was over 100 µM. It also gave a TGI [38] of over 100 µM, a TGI [39] of over 100 µM and a TGI [41] of over 100 µM. The TGI [42] was 60.5 µM, the TGI [43] was over 100 µM and the TGI [44] was over 100 µM. It also gave a TGI [45] of over 100 µM, a TGI [46] of over 100 µM and a TGI [48] of over 100 µM. For the same compound, the TGI [49] was 72.6 µM, the TGI [50] was over 100 µM and the TGI [51] was 94.8 µM. It also gave a TGI [57] of over 100 µM, a TGI [52] of over 100 µM and a TGI [53] of over 100 µM. The TGI [58] was over 100 µM.
